{"source": "patent US20240408279A1", "about": "“SUPRAMOLECULAR-COVALENT COMPOSITE SLURRY FOR CARTILAGE REPAIR” (Northwestern University, priority 2021, published 2024)", "key": {"[1]": {"system": "osteochondral defect in the femoral trochlear groove", "experiment": "Osteochondral defect repair, femoral trochlear groove (ICRS macroscopic and modified O'Driscoll histology scoring)", "assay_type": "in vivo, sheep", "settings": "Trochlea, TGFβ (+), control = TGFβ-1 in saline; for median Macroscopic Score: 12-point scale; for median Histology Score: 24-point scale", "procedure": "(§1) Osteochondral defect filling and regeneration: Skeletally mature female sheep were anesthetized and arthrotomy was performed bilaterally. One 3-4 mm deep and 7 mm diameter osteochondral defect was made in the medial femoral condyle of each stifle and one defect of the same dimensions in the femoral trochlear groove of each stifle. In one stifle, both defects were immediately filled with the PA/HA hybrid with 1 μg/mL TGFβ-1 preloaded as indicated. In the contralateral stifle, saline was immediately added to both defects, which was supplemented with TGFβ-1 at the same concentration as used in the material treated stifle. A calcium chloride solution was then dripped on top of each defect. […] allowed the sheep to stand on the hindlimbs. Samples of each sheep's synovial fluid was antiseptically drawn immediately prior to surgery and one week following surgery. After euthanasia, gross appearance of the defect areas was assessed the ICRS macroscopic scoring system (Ref. 59; incorporated by reference in its entirety) (Table 4). The samples were then fixed in formalin, decalcified the samples and prepared sections which were stained with H&E, with safranin O, or immunohistochemically for collagen II. Sections were scored using a modified O'Driscoll scoring system (Ref. 60; incorporated by reference in its entirety) (Table 5).\n(§2) Preparation of material for surgical implant: Heat treated PA solutions prepared at 19 mM were combined with a 10 μg/mL TGFβ-1 solution (R&D Systems) dissolved in a 0.1% BSA, 4 mM HCl buffer or with the buffer alone at a 9:1 ratio. The combination was mixed by pipetting and kept on ice for 1 h. 900 μL of the mixed solution was added to 36 mg of crosslinked HA particles prepared under sterile conditions and allowed to hydrate for 1 h. The hybrid material was packed into a 1 mL syringe with a 19-gauge needle attached and kept on ice until use during surgery.\nAnimal study design: Animal work was performed at the University of Wisconsin, School of Veterinary Medicine, and all procedures were approved by the Institutional Animal Use and Care Committee. Thirty-six mature female sheep ranging in age from 2-7 (mean=3.7±1.7) years weighing between 60 and 100 (mean=74±8.3) kg were used in this study. […]"}, "[2]": {"system": "osteochondral defect in the medial femoral condyle", "experiment": "Osteochondral defect repair, medial femoral condyle (ICRS macroscopic and modified O'Driscoll histology scoring)", "assay_type": "in vivo, sheep", "settings": "TGFβ (+); for median Macroscopic Score: 12-point scale; for median Histology Score: 24-point scale", "procedure": "as §1, §2\nAnimal study design: Animal work was performed at the University of Wisconsin, School of Veterinary Medicine, and all procedures were approved by the Institutional Animal Use and Care Committee. Thirty-six mature female sheep ranging in age from 2-7 (mean=3.7±1.7) years weighing between 60 and 100 (mean=74±8.3) kg were used in this study. Animals were divided into 6 groups: (1) 1 pilot sheep sacrificed at 1 week to assess material retention, (2) 6 sheep sacrificed at 4 weeks treated with PA and TGFβ-1, with 1 sheep sacrificed prior to 4 weeks due to patellar luxation and excluded from the analysis, (3) 6 sheep sacrificed at 4 weeks with PA, but without TGFβ-1 treatment, (4) 14 sheep sacrificed at 12 weeks with PA and TGFβ-1 treatment, with 4 sheep sacrificed prior to 12 weeks due to patellar luxation and excluded from analysis, (5) 6 sheep sacrificed at 12 weeks with PA but without TGFβ-1 treatment, with 2 sacrificed prior to 12 weeks due to patellar luxation and excluded from analysis, and (6) two sheep sacrificed at 24 weeks with PA and TGFβ-1 treatment.\nSurgical technique: Prior to surgery the sheep were fasted for 24 h, and withheld water for 12 h. Sheep were administered a dose of Xylazine (0.1-0.22 mg/kg IM) in their pen to sedate them for transport to the surgical suite as well as a pre-operative dose of buprenorphine (0.0006-0.01 mg/kg IM) for analgesia. Sheep were then induced with ketamine-midazolam (2-10 mg/kg-0.1-0.3 mg/kg IM) and immediately intubated. Once intubated the sheep were maintained on isoflurane (0-4%) in 100% O2. At this time, a dose of Procaine Penicillin-G (10,000-20,000 IU/kg) IM was administered. Using aseptic techniques, a medial stifle arthrotomy was performed on both limbs of each sheep. In each stifle, one osteochondral defect was made in the medial femoral condyle and a second was made in the femoral trochlear groove using a Stryker EHD variable speed surgical drill and a cannulated drill bit. For the 24-week group, defects were made in the condyle only and not the trochlear groove. […]"}, "[3]": {"settings": "4 weeks, control = TGFβ-1 in saline"}, "[4]": {"settings": "12 weeks, control = TGFβ-1 in saline"}}}
{"substance": "Control: in TGFβ (+) groups: contralateral control defects filled with 1 μg/mL TGFβ-1 in saline solution", "values": [{"measurement": "median Macroscopic Score", "setting": "[1]; 4 weeks", "value": 5.7}, {"measurement": "median Histology Score", "setting": "[1]; 4 weeks", "value": 10.3}, {"measurement": "median Macroscopic Score", "setting": "[1]; 12 weeks", "value": 10.33}, {"measurement": "median Histology Score", "setting": "[1]; 12 weeks", "value": 11}, {"measurement": "median Macroscopic Score", "setting": "[2]; [3]", "value": 5}, {"measurement": "median Histology Score", "setting": "[2]; [3]", "value": 9.7}, {"measurement": "median Macroscopic Score", "setting": "[2]; [4]", "value": 7}, {"measurement": "median Histology Score", "setting": "[2]; [4]", "value": 10}, {"measurement": "median Macroscopic Score", "setting": "[2]; 24 weeks", "value": 9}, {"measurement": "median Histology Score", "setting": "[2]; 24 weeks", "value": 15.3}]}
